Measured values from PMC6749294, “Comparison of the Utility of RP-TLC Technique and Different Computational Methods to Assess the Lipophilicity of Selected Antiparasitic, Antihypertensive, and Anti-inflammatory Drugs” (Molecules, 2019).
Read-outs that look alike come from different tables or passages of the source.

Legend:
[1] = RP-TLC lipophilicity on RP-18F254 plates (Soczewiński-Wachtmeister's and Ościk's equations); type: physicochemical; conditions: for RMWO(a) / RMWO(m): Ościk's equation; for RMWO(a) / RMWS(a) / φ0(a): acetone-water mobile phase; for RMWO(a) / RMWO(m) / RMWS(a) / RMWS(m): silica gel RP-18F254; for RMWO(m) / RMWS(m) / φ0(m): methanol-water mobile phase; for RMWS(a) / RMWS(m): Soczewiński-Wachtmeister's equation; for φ0(a) / φ0(m): φ0 = RMWS/S (Equation 6)
Procedure: The chromatographic analysis was carried on RP-18F254 plates (Art.1.05559, E. Merck, Darmstadt, Germany). The solutions of the investigated compounds were spotted separately onto chromatographic plates using precise micropipettes in a quantity of 5 µL each.
The chromatograms were developed using the mixtures of methanol-water and acetone-water in different volume compositions, as follows:
For antiparasitic drugs: • - the content of methanol was gradually varied by 10% (v/v) from 20–100 (%, v/v), • - the content of acetone was gradually varied by 10% (v/v) from 10–100 (%, v/v).
In the case of antihypertensive drugs, the content of methanol and acetone was gradually varied by 5% (v/v) from 60–100 (%, v/v).
For non-steroidal anti-inflammatory drugs: • - the content of methanol was gradually varied by 5% (v/v) from 60–100 (%, v/v), • - the content of acetone was gradually varied by10% (v/v) from 20–100 (%, v/v).
Next, the chamber was saturated with solvent vapor for 20 min. The chromatograms were developed at room temperature, e.g., 22 ± 1 °C. The development distance was 75 mm. The plates were dried at room temperature, e.g., 22 ± 1 °C. Each chromatogram was done in triplicate.
Densitometric scanning was done using a TLC Scanner 3 with WinCATS 1.4.2 software manufactured by Camag (Muttenz, Switzerland) in the reflectance/absorbance mode.
Densitometric scanning was performed at a respective absorption maximum for the analyzed drugs. The slit dimensions were 10.00 × 0.40 mm, Macro; the optimized optical system was light; the scanning speed was 20 mm/s; the data resolution was 100 μm/step; the measurement type was remission; the measurement mode was absorption; and the optical filter was second order. Each track was scanned three times, and a baseline correction (lowest slope) was used.
In order to determine the lipophilicity parameter based on Soczewiński-Wachtmeister′s procedure, the RF values obtained under the applied chromatographic conditions were converted into RM values according to the expression:(4) RM=log1/RF−1 The linear relationship between RM and the volume content of methanol and acetone in the mobile phase (φ) permits an extrapolation of the calculated RM values to the zero concentration of methanol and acetone in accordance with Soczewiński-Wachtmeister′s Equation (5). […] (5) RM=RMWS−Sφ where: RM is the RM value of the studied compound, RMWS is the RM value extrapolated to zero concentration of methanol and acetone (organic modifier) in the used mobile phase, i.e., methanol-water and acetone-water, respectively, S is the slope of the regression plot (see Supplementary Materials), and φ is the volume fraction of methanol and acetone in the mobile phase. In addition to this, on the basis of the said plot, i.e., Soczewiński-Wachtmeister′s equation, another chromatographic descriptor (φ0) has been calculated according to the following formula (Equation (6)): (6) φ0 = RMWS/S where: RMWS is the chromatographic parameter obtained by using Soczewiński-Wachtmeister’s equation in accordance with Equation (5), and S is the regression slope.
The measurable lipophilicity value expressed as RMWO was determined according to Ościk’s equation [29, 30, 32]:(7) Gxorg=xorg1−xorg/RM−xorgRMorg−1−xorgRMWO=axorg+b where: RM, RMorg, and RMWO are the solute retention factors in the mixed mobile phase, pure organic solvent, and water, respectively; xorg is the molar fraction of the organic solvent in the mobile phase; a and b are constants in the linear correlation between G(xorg) and xorg in the used mobile phase.

[2] = Experimental n-octanol-water partition coefficient (logPexp) from literature and databases; type: physicochemical; conditions: average of the differing literature logPexp values (± spread)
Description: The next stage of this paper was a comparison of all obtained RMWS and RMWO parameters calculated using […] equations with theoretical and experimental logP values obtained in an n-octanol-water system.

[3] = n-octanol-water, cited from earlier work
[4] = design: method as in PMID 9809446; conditions: methanol-water, cited from earlier work
[5] = RP-18WF254 plates, Soczewiński-Wachtmeister's equation

Row | SMILES | RMWO(a) [1] | RMWO(m) [1] | RMWS(a) [1] | RMWS(m) [1] | φ0(a) [1] | φ0(m) [1] | logP [2] | logPexp ([3]; ref 39) | RMO ([4]; Nano-Sil CNF254 plates) | RMO [4, 5] | logPexp ([3]; ref 36) | logPexp ([3]; ref 42) | logPexp ([3]; ref 43) | logPexp ([3]; ref 33) | logPexp ([3]; ref 6) | logPexp ([3]; ref 41)
1 | Cc1cccc(Nc2ccccc2C(=O)O)c1C [Mefenamic Acid, mefenamic acid] | – | 3.74 | 2.61 | 2.49 | 0.789 | 0.865 | – | 5.12 [39] | – | – | – | – | – | – | – | –
2 | COc1ccc2c(c1)c(CC(=O)O)c(C)n2C(=O)c1ccc(Cl)cc1 [Indomethacin, indomethacin] | – | 4.08 | 2.57 | 2.19 | 0.747 | 0.790 | – | – | 0.52 | 2.62 | 4.27 [36] | 4.10 [42] | – | – | – | –
3 | CCCCC1C(=O)N(c2ccccc2)N(c2ccccc2)C1=O [Phenylbutazone, phenylbutazone] | – | 3.54 | 1.72 | 1.84 | – | – | – | – | 1.50 | 2.71 | – | – | – | – | – | –
4 | COC(=O)C1=C(C)NC(C)=C(C(=O)OC(C)C)C1c1cccc2nonc12 (stereo not shown) [Isradipine, isradipine] | 5.67 | 5.08 | 3.54 | 3.13 | 0.751 | 0.837 | – | – | – | – | – | – | – | – | 4.28 [6] | –
5 | CCOC(=O)C1=C(C)NC(C)=C(C(=O)OC)C1c1cccc(Cl)c1Cl (stereo not shown) [Felodipine, felodipine] | 5.57 | 6.57 | 3.75 | 4.27 | 0.775 | 0.929 | 4.16 | – | – | – | – | – | – | – | 3.86 [6] | 4.46 [41]

Second part, led by results:

Row | RMWO(a) [1] | RMWO(m) [1] | RMWS(a) [1] | RMWS(m) [1] | φ0(a) [1] | φ0(m) [1] | logP [2] | SMILES | logPexp ([3]; ref 39) | RMO ([4]; Nano-Sil CNF254 plates) | RMO [4, 5] | logPexp ([3]; ref 36) | logPexp ([3]; ref 42) | logPexp ([3]; ref 43) | logPexp ([3]; ref 33) | logPexp ([3]; ref 6) | logPexp ([3]; ref 41)
6 | 1.42 | 1.92 | 1.22 | 1.46 | 0.565 | 0.676 | 0.41 | Cc1ncc([N+](=O)[O-])n1CC(O)CCl (stereo not shown) [Ornidazole, ornidazole] | – | – | – | – | – | – | – | – | –
7 | – | 2.52 | 3.08 | 3.12 | 0.787 | 0.903 | – | COc1ccc2cc(CCC(C)=O)ccc2c1 [Nabumetone, nabumetone] | – | – | – | – | – | 3.08 [43] | – | – | –
8 | 1.21 | 1.72 | 0.95 | 1.26 | – | – | – | Cc1ncc([N+](=O)[O-])n1CC(C)O (stereo not shown) [Secnidazole, secnidazole] | – | – | – | – | – | – | 0.22 [33] | – | –
9 | 1.11 | 1.69 | 0.89 | 1.17 | 0.463 | 0.612 | 0.18 | CCS(=O)(=O)CCn1c([N+](=O)[O-])cnc1C [Tinidazole, tinidazole] | – | – | – | – | – | – | – | – | –
